Entries after “also recorded” stand apart in the source; their conditions may differ.
Tests used:
[1] = system: p21 in MCF-7 cells; assay: Immunostaining for nuclear accumulation of p21; format: cell-based, human; settings: MCF-7, 4 and 8 μM, 36 h
Description: (§1) Experiment: MCF-7 (5×10^4 cells/well) cells were seeded on glass cover slip in a 24-well cell culture plate. After the cells were attached, they were incubated with 4 and 8 μM (1R,2R,5S)-1c for 36 h, fixed with 3.7% formaldehyde and processed for immunostaining. After fixing, cells were blocked with 2% BSA and incubated with anti-p53 IgG (1:300) and anti-p21 IgG (1:300) for 2 h at 37° C. Primary antibody incubation was followed by Alexa Fluor 568-conjugated sheep anti-mouse secondary IgG (1:400) incubation for 1 h at 37° C. Hoechst 33258 was used to stain the DNA. Immunofluorescence images were captured using Eclipse TE 2000U microscope (Nikon, Tokyo, Japan) at 40× magnification and processed by Image-Pro Plus software (Media Cybernetics, Silver Spring, Md.). To determine the percentage of cells with nuclear accumulation of p53 and p21, 1000 cells were scored in each case. The experiment was repeated thrice.

[2] = system: p53 in MCF-7 cells; assay: Immunostaining for nuclear accumulation of p53; format: cell-based, human; settings: MCF-7, 4 and 8 μM, 36 h
Description: as §1

[3] = system: B16-F10 cells; assay: Sulforhodamine B assay, B16-F10 skin cancer cells; format: cell-based, mouse; settings: SRB
Description: (§2) The present invention further provides a Sulforhodamine B assay method for investigating the anti-cancer efficacies of the compounds of the present Pd—NHC series on MCF-7, HeLa, A549, B16-F10 and EMT6/AR1 cancer cell lines and also for a comparative study on normal skin cell line L929 and normal epithelial breast cells MCF10A. The said Sulforhodamine B assay is conducted as per reported method (Skehan et al., J. Natl. Cancer Inst. 1990, 82, 1107).

[4] = system: HeLa cells; assay: Sulforhodamine B assay, proliferation of HeLa cells; format: cell-based, human; settings: for IC50: HeLa cervical cancer cells, 24 h, SRB
Description: as §2
Experiment: The anti-proliferative activity of the present palladium N-heterocyclic carbene complexes on two different cancer cell lines MCF-7 and HeLa is tested using Sulforhodamine B assay to reveal their anti-tumor properties. The evaluation of growth inhibition of these complexes is done from their IC50 values for the inhibition of cell growth. The IC50 values are compared with Cisplatin to determine any increase in efficacy.
The seeded cells in 96-well plates are incubated with the complex for 24 h and the assay is performed.
The data obtained is graphically represented in accompanying FIG. 2.

[5] = system: MCF-7 cells; assay: Mitotic index from DNA morphology (Hoechst 33258); format: cell-based, human
Description: Experiment: MCF-7 cells (5 mL) were seeded in 60 mm cell culture dishes at a density of 1.5×10^5 cells/mL. The cells were incubated with 2 and 4 μM (1R,2R,5S)-1c for 36 h for cell cycle analysis. After the required incubation, cells were processed and analyzed by flow cytometry. Cell cycle data was analyzed using Flow Jo software. Cell cycle analysis and mitotic indices of MCF-7 cells in the absence and presence 2 and 4 μM (1R,2R,5S)-1c. Cell cycle analysis was done using flow cytometer after incubating the cells with PI. The data was analyzed using Flow Jo software. Data were average of three independent set of experiments with S.D (±). Mitotic index (percentage of cells in mitosis) was calculated based on DNA morphology of cells stained with Hoechst 33258. Data were average of three independent set of experiments with S.D (±). 1000 cells were scored in each set.

[6] = system: L929 cells; assay: Sulforhodamine B assay, normal skin cells L929 (selectivity); format: cell-based; settings: L929 IC50 against B16-F10 IC50
Description: as §2

[7] = system: A549 cells; assay: Sulforhodamine B assay, A549 lung cancer cells; format: cell-based, human; settings: SRB
Description: as §2

trans-[1-(1R)-menthyl-4-(ethyl)-1,2,4-triazol-5-ylidene]2Pd(OCOCF3)2 [(1R,2R,5S)-1c]
Nuclear accumulation of p21 (in words) [1]: nuclear accumulation of p21; also recorded: transcriptionally activates p21
Nuclear accumulation of p53 (in words) [2]: leads to the nuclear accumulation of p53
IC50 [3]: 1.3 ± 0.4 µM
IC50 of Cisplatin against HeLa as multiple of IC50 of the complex ([4]; HeLa): around 4 times
IC50 ([4]; listed as drawing 41): 2.3 ± 1 µM
IC50 ([4]; listed as drawing 48): 2.3 ± 1 µM
Mitotic Index (percentage of cells in mitosis) ([5]; MCF-7, 2 μM): 3 ± 1%
Mitotic Index (percentage of cells in mitosis) ([5]; MCF-7, 4 μM): 3.2 ± 1%
Arrest at mitosis (in words) ([5]; MCF-7, Hoechst 33258 DNA morphology): did not arrest cells at mitosis
times more selective towards the cancer cells (B16-F10 vs L929) [6]: around 8.1 times
IC50 [7]: 5.7 ± 1.6 µM

From patent publication US10421769B2, “Anticancer property studies of chiral palladium N-heterocyclic carbene complexes and process for preparation thereof” (Indian Institute of Technology Bombay, priority 2017, dated 2019)
